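Step 1: Grow cells in 96-well plates. Step 2: Expose to compound for 48 hours at 5 concentrations. Step 3: Interpolate endpoints linearly; if unreached, use highest concentration. GI50 marks 50% less growth.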 Calls of active or inactive are those of the source. No stated cut-off is given here; in the data, active = GI50 up to about 1.1 µM and inactive = higher.
Assays:
Test in all cases: NCI tumour cell line growth inhibition, 48 h
MOLT-4 = tested on: MOLT-4
CAKI-1 = tested on: CAKI-1
SNB-75 = tested on: SNB-75
Hs-578T = tested on: Hs-578T
MCF7 = tested on: MCF7
A498 = tested on: A498
TK-10 = tested on: TK-10
K562 = tested on: K562
SF-268 = tested on: SF-268
SK-MEL-2 = tested on: SK-MEL-2
HCT-15 = tested on: HCT-15
NCI-H226 = tested on: NCI-H226
NCI/ADR-RES = tested on: NCI/ADR-RES
M14 = tested on: M14
SNB-19 = tested on: SNB-19
SF-295 = tested on: SF-295
RPMI-8226 = tested on: RPMI-8226
HOP-92 = tested on: HOP-92
SR = tested on: SR
HOP-62 = tested on: HOP-62

Row | SMILES | GI50 (MOLT-4) | GI50 (CAKI-1) | GI50 (SNB-75) | GI50 (Hs-578T) | GI50 (MCF7) | GI50 (A498) | GI50 (TK-10) | GI50 (K562) | GI50 (SF-268) | GI50 (SK-MEL-2) | GI50 (HCT-15) [µM] | GI50 (NCI-H226) | GI50 (NCI/ADR-RES) | GI50 (M14) | GI50 (SNB-19) | GI50 (SF-295) | GI50 (RPMI-8226) | GI50 (HOP-92) | GI50 (SR) | GI50 (HOP-62)
1 | C=C/C(C)=C\CC1[C@](C)(O)CC[C@H]2C(C)(C)C(O)CC[C@]12C (stereo partly specified) | 33.8 µM (inactive) | > 100 µM (inactive) | > 100 µM (inactive) | > 100 µM (inactive) | 70.1 µM (inactive) | > 100 µM (inactive) | > 100 µM (inactive) | 34.4 µM (inactive) | > 100 µM (inactive) | > 100 µM (inactive) | > 100 | > 100 µM (inactive) | > 100 µM (inactive) | > 100 µM (inactive) | > 100 µM (inactive) | > 100 µM (inactive) | 42.6 µM (inactive) | > 100 µM (inactive) | 40.8 µM (inactive) | 
2 | COc1cc(COC(=O)N(CC(=O)O)c2ccccc2)c([N+](=O)[O-])cc1OC | > 100 µM (inactive) |  | > 100 µM (inactive) | > 100 µM (inactive) | > 100 µM (inactive) | 62.7 µM (inactive) | > 100 µM (inactive) | > 100 µM (inactive) | > 100 µM (inactive) |  | > 100 | > 100 µM (inactive) | > 100 µM (inactive) | > 100 µM (inactive) | > 100 µM (inactive) | > 100 µM (inactive) | > 100 µM (inactive) | > 100 µM (inactive) | > 100 µM (inactive) | > 100 µM (inactive)
3 | N#Cc1c(Cl)c(C=O)c(=O)n2c1[nH]c1ccccc12 | 29 µM (inactive) | 40.3 µM (inactive) | 42.1 µM (inactive) | 45.1 µM (inactive) | 33.3 µM (inactive) | 31.7 µM (inactive) | > 100 µM (inactive) | 56.8 µM (inactive) | 38.6 µM (inactive) |  | 57.5 | 24.7 µM (inactive) | 28.3 µM (inactive) | 28.4 µM (inactive) | 63.8 µM (inactive) | 35.9 µM (inactive) | > 100 µM (inactive) | 24.2 µM (inactive) | 10 µM (inactive) | 39 µM (inactive)
4 | COC(=O)C1CC(C=[N+](C)C)=C(SC)N1C(=O)OCc1ccccc1 (stereo unspecified) | > 100 µM (inactive) | > 100 µM (inactive) | > 100 µM (inactive) | > 100 µM (inactive) | 95.9 µM (inactive) | > 100 µM (inactive) | > 100 µM (inactive) | > 100 µM (inactive) | > 100 µM (inactive) | > 100 µM (inactive) | > 100 |  | > 100 µM (inactive) | > 100 µM (inactive) | > 100 µM (inactive) | > 100 µM (inactive) | > 100 µM (inactive) | > 100 µM (inactive) | > 100 µM (inactive) | > 100 µM (inactive)
5 | COc1cc(-c2cc(OC)c(OC)c3ccc(Br)cc23)c2cc(Br)ccc2c1OC | 45.7 µM (inactive) | 47.4 µM (inactive) |  | 38.8 µM (inactive) | 47.2 µM (inactive) | 23.8 µM (inactive) | 31.1 µM (inactive) | 22.4 µM (inactive) | 20.2 µM (inactive) | 25.4 µM (inactive) | 63.2 | 23.3 µM (inactive) | 33.7 µM (inactive) | 23.2 µM (inactive) | 39.5 µM (inactive) | 18.6 µM (inactive) | 21.4 µM (inactive) | 18.9 µM (inactive) | 34.4 µM (inactive) | 21.6 µM (inactive)
6 | C/C1=C/C(C)CC(C)OC(=O)C(C)NC(=O)C(Cc2ccc(O)c(I)c2)N(C)C(=O)C(C)NC(=O)C(C)C1 (stereo unspecified) | < 0.0187 µM (active) | < 0.01 µM (active) | < 0.01 µM (active) | < 0.01 µM (active) | < 0.0371 µM (active) | < 0.01 µM (active) | < 0.01 µM (active) | < 0.01 µM (active) | < 0.0166 µM (active) |  | < 0.0164 | < 0.0363 µM (active) | 0.026 µM (active) | < 0.015 µM (active) | 0.0667 µM (active) | < 0.0316 µM (active) | < 0.01 µM (active) | < 0.0134 µM (active) | < 0.01 µM (active) | < 0.01 µM (active)
7 | COC(=O)c1cc(C)ccc1/C=C1\Cc2c(C)cc(C)cc2C1=O | > 100 µM (inactive) | 30.6 µM (inactive) | 16.2 µM (inactive) | 14 µM (inactive) | > 100 µM (inactive) | 30.8 µM (inactive) | 17.9 µM (inactive) | > 100 µM (inactive) | 15.3 µM (inactive) | 22.8 µM (inactive) | > 100 | 35.4 µM (inactive) | 64.3 µM (inactive) | 17.3 µM (inactive) | 15.7 µM (inactive) | 3.61 µM (inactive) | 10.3 µM (inactive) | 4.56 µM (inactive) | 20 µM (inactive) | 11.9 µM (inactive)
8 | O=C1NC(=O)/C(=C/c2ccc(S(=O)(=O)N/N=C/c3ccc(Cl)cc3)cc2)N1 | > 100 µM (inactive) | > 100 µM (inactive) | > 100 µM (inactive) | > 100 µM (inactive) | > 100 µM (inactive) | 23.6 µM (inactive) | > 100 µM (inactive) | > 100 µM (inactive) | > 100 µM (inactive) | > 100 µM (inactive) | > 100 | > 100 µM (inactive) | > 100 µM (inactive) | > 100 µM (inactive) | > 100 µM (inactive) | > 100 µM (inactive) | > 100 µM (inactive) | 78.5 µM (inactive) | 61.2 µM (inactive) | > 100 µM (inactive)
9 | CCC1c2[nH]c3ccccc3c2C[C@H]2C(=O)NC(Cc3c[nH]c4ccccc34)C(=O)N12 (stereo partly specified) | 15.9 µM (inactive) | 28.8 µM (inactive) |  | 22.6 µM (inactive) | 27.3 µM (inactive) | 30.5 µM (inactive) | 23.2 µM (inactive) | 27.6 µM (inactive) | 29.7 µM (inactive) | 20 µM (inactive) | 28.5 | 32.7 µM (inactive) | 27.9 µM (inactive) | 21.5 µM (inactive) | 37.5 µM (inactive) | 17.3 µM (inactive) | 19.4 µM (inactive) | 26.5 µM (inactive) | 16.9 µM (inactive) | 24 µM (inactive)
10 | Cc1c(/C=N/NC(=S)N2CCCCC2)c(=O)n(-c2ccccc2)n1C | 31.3 µM (inactive) | 77.1 µM (inactive) | > 100 µM (inactive) | 39.3 µM (inactive) | 43.9 µM (inactive) | 24.3 µM (inactive) | 61.2 µM (inactive) | 36.6 µM (inactive) | 29.5 µM (inactive) |  | 23.1 | > 100 µM (inactive) | 28.9 µM (inactive) | 61.9 µM (inactive) | 71.4 µM (inactive) | 40.7 µM (inactive) | 67.5 µM (inactive) | > 100 µM (inactive) | > 100 µM (inactive) | 88.9 µM (inactive)
11 | Cc1ccc(C)c(NC(=O)NCc2ccc(Cl)cc2)c1 |  | 27.2 µM (inactive) | 2.24 µM (inactive) | 25.5 µM (inactive) | 50.2 µM (inactive) | 20.8 µM (inactive) | 20.5 µM (inactive) | 47.5 µM (inactive) | 38.9 µM (inactive) | > 63 µM (inactive) | > 100 | 38.2 µM (inactive) | > 58.1 µM (inactive) | 52.5 µM (inactive) | > 23.3 µM (inactive) | 16.7 µM (inactive) | 37.2 µM (inactive) | 18.3 µM (inactive) | 13.8 µM (inactive) | 9.31 µM (inactive)
12 | NC(Cc1ccc(OCc2ccccc2)cn1)C(=O)OCc1ccccc1 (stereo unspecified) |  | > 100 µM (inactive) |  | > 100 µM (inactive) | > 100 µM (inactive) | > 100 µM (inactive) | > 100 µM (inactive) | > 100 µM (inactive) |  |  | > 100 | > 100 µM (inactive) | > 100 µM (inactive) |  | > 100 µM (inactive) | > 100 µM (inactive) | > 100 µM (inactive) | > 100 µM (inactive) | > 100 µM (inactive) | > 100 µM (inactive)
13 | CN(C)c1ncnc2c1ncn2C1C=CC(COS(N)(=O)=O)C1 (stereo unspecified) | > 100 µM (inactive) | > 100 µM (inactive) | > 100 µM (inactive) | 44.5 µM (inactive) | > 100 µM (inactive) | > 100 µM (inactive) |  | 82.4 µM (inactive) | > 100 µM (inactive) | > 100 µM (inactive) | > 100 |  | > 100 µM (inactive) | > 100 µM (inactive) | > 100 µM (inactive) | > 100 µM (inactive) | > 100 µM (inactive) | > 100 µM (inactive) | > 100 µM (inactive) | > 100 µM (inactive)
14 | O=C(O)CN1CCN(CC(=O)N2CCN(C(=O)OCc3ccccc3)CC2)CCN(CC(=O)O)CCN(CC(=O)N2CCN(C(=O)OCc3ccccc3)CC2)CC1 | > 100 µM (inactive) | > 100 µM (inactive) | > 100 µM (inactive) | > 100 µM (inactive) | > 100 µM (inactive) | > 100 µM (inactive) | > 100 µM (inactive) | > 100 µM (inactive) |  | > 100 µM (inactive) | > 100 | > 100 µM (inactive) | > 100 µM (inactive) | > 100 µM (inactive) | > 100 µM (inactive) | > 100 µM (inactive) | > 100 µM (inactive) | > 100 µM (inactive) | > 100 µM (inactive) | > 100 µM (inactive)
15 | Cc1cc2nc(N)n[n+]([O-])c2cc1C | > 100 µM (inactive) | > 100 µM (inactive) | > 10 µM (inactive) | > 100 µM (inactive) | > 100 µM (inactive) | > 100 µM (inactive) | > 100 µM (inactive) | > 100 µM (inactive) | > 100 µM (inactive) | > 100 µM (inactive) | > 100 | > 100 µM (inactive) | > 100 µM (inactive) | > 100 µM (inactive) | > 100 µM (inactive) | > 100 µM (inactive) | > 100 µM (inactive) |  | > 100 µM (inactive) | > 100 µM (inactive)
